Consider 4 molecules from US8765198B2, “Anti-stretch mark active agent, and compositions containing same” (Laboratoires Expanscience, priority 2008, dated 2014).

Assay type in all cases: cell-based
The test system of one data set is IL-1β. Kind of data set: Anti-inflammatory potential: IL-1β ELISA in keratinocytes stimulated with PMA. The procedure: Keratinocytes were inoculated in KGM2 medium. After 24 hours of incubation, the cells were pre-treated with 0.2% (dry matter) arabinogalactan for 24 hours. Next, the cells were stimulated by adding 10 μg/ml PMA (phorbol-12-myristate-13-acetate; Sigma) for 16 hours, in order to mimic inflammation.
At the end of the treatment, the cell supernatants were collected and IL-1β was assayed using ELISA kits (R&D Systems).
On the cell layers, a neutral red assay was carried out: optical density, proportional to the quantity of living cells, is read at 540 nm.
The quantity of IL-1β is expressed by living cells according to the formula: OD ELISA IL-1β/OD540.
(§1) The significance of the results was evaluated by a Student's t-test: *p<0.05, **p<0.01.
(An ELISA detects its analyte on a solid surface through an enzyme-linked reagent.)

The test system of data set [1] is gene coding for collagen type I. The experiment in a line: Gene expression of collagen I in normal fibroblasts by quantitative real-time PCR. The note with it: 48-hour treatment, normalized to GAPDH, 0.2% arabinogalactan or 5 ng/ml TGF-β1.
Excerpt: (§2) The quantitative real-time polymerase chain reaction (qRT-PCR) is a method that makes it possible to measure in a specific and quantitative way the expression of genes of interest by amplification. Quantification is based on the real-time monitoring of gene amplification using SYBR Green as a reporter system. SYBR Green is a molecule with fluorescent properties which is intercalated in double-stranded DNA. […]
(§3) The quantities of DNA are compared in the exponential part, the time during which the increase in the quantity of DNA is proportional to the initial quantity of the matrix. […]
(§4) At the end of the treatment of the cells, total RNA was extracted (RNeasy MiniKit) and then assayed quantitatively in chips using the Experion system (Experion RNA StdSens kit). […]
(§5) Expression of the genes of reference is analyzed in the same samples as those for which the expression of the genes of interest is evaluated in order to normalize the results.
(§6) Variation in the number of copies of the gene of interest during the treatment is then calculated according to the following formula: ΔΔCt=ΔCtcontrol−ΔCttreatment
(§7) Finally, the relative quantity or level of expression of the genes of interest normalized by the level of expression of the reference genes in the untreated and treated samples is obtained by the formula RQ=2^ΔΔCt.
as §1

Another data set has as its system collagen type III gene. Kind of data set: Gene expression of collagen III in normal fibroblasts by quantitative real-time PCR. The note with it: 48 hours of treatment, 0.2% dry matter arabinogalactan or 5 ng/ml TGF-β1.
Excerpt: as §2, §3, §4, §5, §6, §7, §1
For orientation: Quantitative PCR measures a nucleic acid by following its amplification.

Another data set relates to fibroblasts. The experiment in a line: Study of fibroblast proliferation by the MTT method. The following applies: 0.2% arabinogalactan, 48 hours of treatment. The method, then:
The MTT [3-(4,5-dimethylthiazol-2-yl)-2,5-diphenyltetrazolium bromide] assay is a colorimetric test which measures cell viability. MTT is a yellow water-soluble tetrazolium salt; metabolically active cells are capable of reducing it into formazan blue crystals.
At D0, the fibroblasts are inoculated in RPMI medium with 1% FCS.
At D1, the cells are treated with RPMI with 10% FCS (positive control) or with 0.2% arabinogalactan for 48 hours.
At the end of the treatment, cell viability is quantified by an MTT assay: after 3 hours of contact with MTT, the formazan crystals formed are solubilized by DMSO and the optical density, proportional to the quantity of metabolically active and thus living cells, is read at 570 nm against the blank (without cells).
as §1

Data set [2] concerns normal human keratinocytes. The experiment in a line: Prerequisite cutaneous tolerance: pro-inflammatory potential, interleukins 1 and 8 and TNF-α assayed in the cell supernatant. The following applies: 0.2% dry matter. The method, then: A. Prerequisite Cutaneous Tolerance • Inflammation: The pro-inflammatory potential of arabinogalactan was evaluated on normal human keratinocytes. Interleukins 1 and 8 as well as TNF-α, early mediators of inflammation, were assayed in the cell supernatant.

The next data set relates to collagen I gene. Kind of data set: Preventive effect on collagen I gene expression in fibroblasts treated with hydrocortisone (hormonal environment).
Excerpt: as §2, §3, §4, §5, §6, §7, §1

For the molecule `CCCCCCCCCCCCCC(=O)O[C@@H]1[C@@H](C)[C@@]2(O)[C@@H](C=C(CO)C[C@]3(O)C(=O)C(C)=C[C@@H]23)[C@@H]2C(C)(C)[C@]12OC(C)=O` [PMA, phorbol-12-myristate-13-acetate, reference compound], in the data set on IL-1β (keratinocytes, 10 μg/ml PMA 16 hours), the “salting out of IL-1β under stress” value is listed as “massively salt-out IL-1β”.
As to “TGF-β: growth factor with a strong capacity to induce molecules of the extracellular matrix; used as a positive control [reference compound]”, the “increase of expression of the gene coding for collagen type I” value in data set [1] is reported as “+223%”. Also, the “increase of expression of the collagen type III gene” value in the data set with collagen type III gene was 147%.
As to arabinogalactan, the “increase of expression of the gene coding for collagen type I” value in data set [1] is “+38%”. For the same molecule, in the data set with fibroblasts, the “fibroblast proliferation / cell regeneration (MTT, OD570)” value is “+20%”. Also, the pro-inflammatory potential result in data set [2] was “not pro-inflammatory”. In addition, in data set [2] (cell supernatant), the “salting out of interleukins 1 and 8 or TNF-α” value is “does not lead to salting out of interleukins 1 and 8 or TNF-α”. Moreover, the “inhibition of salting out of IL-1β (OD ELISA/OD540)” value in the data set on IL-1β (keratinocytes pretreated 24 hours with 0.2% dry matter arabinogalactan, then 10 μg/ml PMA 16 hours) is −21%. The “increase of expression of collagen I in the presence of hydrocortisone” value with collagen I gene (fibroblasts pretreated 24 hours with 0.2% arabinogalactan, then arabinogalactan + 50 μM hydrocortisone 48 hours) stood at 37%. Moreover, in the data set on collagen type III gene, the “increase of expression of the collagen type III gene” value is given as “+81%”.
Turning to `C[C@]12CCC(=O)C=C1CC[C@@H]1[C@@H]2[C@@H](O)C[C@@]2(C)[C@H]1CC[C@]2(O)C(=O)CO` [hydrocortisone, reference compound], the “inhibition of expression of the collagen I gene” value in the data set on collagen I gene (fibroblasts, 50 μM hydrocortisone, 48 hours of treatment) stood at 57%.
